Experimental data reported in patent US8853227B2, “Methotrexate adjuvants to reduce toxicity and methods for using the same” (Tosk, Incorporated, priority 2008, dated 2014).

Columns and labels:
[1] = biological target: human small intestinal UPase enzyme (Homo sapiens (Human), UniProt Q16831); assay: UPase inhibition in human small intestinal tissue homogenate (HPLC of uracil); assay type: biochemical; conditions: 5 mM uridine, 37° C., pH 7.3
Method: A range of TK-112690 doses were studied for the their ability to prevent metabolic breakdown of uridine through the in vitro inhibition of mouse and human small intestinal UPase enzyme. UPase activity was determined by HPLC analysis using UV detection of uracil concentration (UPase catabolizes uridine into uracil and ribose-1-phosphate). The UPase enzyme material was prepared from homogenized mouse and human being small intestinal tissue. TK-112690 was dissolved in water (50 mg/ml) and analyzed for UPase inhibition in aqueous solution containing 5 mM uridine, 0.01 M Tris, 0.01 M phosphate, 1 mM EDTA, and 1 mM DTT. Reactions were performed at 37° C. at pH of 7.3.
[…] inhibition of mouse and human UPase was determined from measurements of uracil determined in homogenates by reverse phase HPLC using UV detection. […]
The aim of this study was to evaluate TK-112690 in vivo as an inhibitor of uridine phosphorylase (UPase) enzyme activity. […] Detection of UPase activity was determined by HPLC analysis using UV detection of uracil concentration (UPase catabolizes uridine into uracil and ribose-1-phosphate).
The UPase enzyme material was prepared from homogenized mouse and human being small intestinal tissue. TK-112690 was dissolved in water (50 mg/ml) and analyzed for UPase inhibition in aqueous solution containing 5 mM uridine, 0.01 M Tris, 0.01 M phosphate, 1 mM EDTA, and 1 mM DTT. […]

CCRF-CEM cells = assay: Cell Culture Study I (MTX cytotoxicity, alamarBlue); assay type: cell-based, human
Method: In this study, CCRF-CEM cells purchased from ATCC were cultured and then 12 tubes containing approximately 10^6 cells each treated for 72 hours with media (Group1), MTX 0.03 μM (Group2), MTX+Leucovorin 1 μM (Group3), MTX+Leucovorin 10 μM (Group4), MTX+Leucovorin 100 μM (GroupS), MTX+TK-112690 1 μM (Group6), MTX+TK-112690 10 μM (Group7) and MTX+TK-112690 100 μM (Group8). […] Viability was measured as percent reduction of alamarBlue absorbance.
The tumor cell line CCR-CEM (human T-cell acute lymphoblastic leukemia) is obtained from American Type Culture Collection (CRL-1593.2) and cultured in accordance with the product information sheet with the following exceptions: 55.3 cm^2 Petri dishes are used instead of 75 cm^2 culture flasks, and 1% penicillin-streptomycin solution (HyClone SV30010) and 1% GlutaMAX™ (Gibco 35050) are added to the culture medium.
TK-112690, the representative 2,2′-anhydropyrimidine test article, is dissolved in 40% DMSO, sterile filtered then diluted with sterile distilled water to obtain initial working solutions of 10, 100 and 1000 μM. In testing, a 100 fold dilution is made in culture media to give final assay concentrations of 0.1, 1.0 and 10.0 μM. MTX (SAFC Biosciences M8407) is dissolved in sterile distilled water and 5 N NaOH then sterile filtered. The final pH of the stock solution is 7.8 and working solutions are made with sterile distilled water for final assay concentrations of 30, 3.0, 0.3, 0.03 and 0.003 μM. Leucovorin (Sigma F-7878) is dissolved in sterile distilled water, sterile filtered and diluted with sterile distilled water for final assay concentrations of 0.1, 1.0 and 10.0 μM.
Aliquots of 100 μL of cell suspension are plated in 96 well microtiter plates (Corning costar 3595) and placed in an atmosphere of 5% CO2 at 37° C. (Fisher Scientific Isotemp 3500 CO2 Incubator). After 24 hours, 100 μL of growth medium [RPMI-1640 w/L-glutamine (Cambrex 12-702Q) fortified with sodium pyruvate (HyClone SH30239.01), fetal bovine serum (SAFC Biosciences 12107C) and HEPES buffer (Gibco 15630)] and 2 μL of test solution or vehicle are added respectively per well and the plates incubated for an additional 72 hour incubation. MTX is evaluated at concentrations of 0.003, 0.03, 0.30 and 3.0 μM alone or in combination with either a 2,2′-anhydropyrimidine test article or Leucovorin at concentrations of 0.1, 1.0, 10.0 μM. At the end of incubation, the efficacy of anti-cell proliferation is determined by optical absorbance at A=570 and 600 nm [Spectramax 250 (Molecular Devices)] in accordance with the standard alamarBlue™ (Biosource) protocol.
Group 1 is the cell control (media treated). Group 2 corresponds to cells treated with 0.03 μM MTX. Group 3 are cells treated with 1.0 μM Leucovorin. Group 4 are cells treated with 0.1 μM Leucovorin. […]

Sequence of human small intestinal UPase enzyme (Q16831 whole entry): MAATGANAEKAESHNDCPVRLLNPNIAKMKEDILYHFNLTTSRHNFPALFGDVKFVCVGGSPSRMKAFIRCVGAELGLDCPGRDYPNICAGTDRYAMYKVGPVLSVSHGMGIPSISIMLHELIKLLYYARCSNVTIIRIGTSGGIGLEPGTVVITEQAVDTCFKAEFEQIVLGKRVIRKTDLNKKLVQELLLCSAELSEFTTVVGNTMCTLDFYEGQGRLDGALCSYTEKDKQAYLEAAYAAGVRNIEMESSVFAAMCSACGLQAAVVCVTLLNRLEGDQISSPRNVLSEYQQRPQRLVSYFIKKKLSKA

For `Cc1cn2c(nc1=O)O[C@H]1[C@H](O)[C@@H](CO)O[C@H]12` [TK-112690, 2,2′-anhydro-5-methyluridine], the IC50 [1] was 20 µM, the “cell viability, MTX+TK-112690 versus MTX alone” value (CCRF-CEM cells; 0.03 μM MTX + TK-112690, 72 hours, p<0.844, 0.918, 1.000) was “not different” and the “cell viability, test article alone versus control” value (CCRF-CEM cells; without MTX, 72 hours) was “not statistically different than control”.
